{"source": "patent US20070203212A1", "about": "“METHOD OF TREATING OSTEOARTHRITIS” (WARNER-LAMBERT COMPANY, priority 2002, published 2007)", "key": {"[1]": {"tested_on": "human recombinant IL-6/IL-6sR induced joint pain", "assay": "IL-6 with IL-6 soluble receptor induced joint pain in rat", "assay_type": "in vivo", "experimental": "It should be appreciated that in Biological Methods 1, 2, 4, and 5 below, hind paw weight bearing differentials between the paw of the limb having the control joint (in animals administered test compound vehicle only) and the paw of the limb having the contralateral test joint (in control or inducement animals administered test compound vehicle only and in treatment animals administered test compound dissolved in test compound vehicle) were determined using an incapacitance tester, model 2KG (Linton Instrumentation, Norfolk, United Kingdom). The incapacitance tester has a chamber on top with an outwardly sloping front wall that supports a rat's front limbs, and two weight sensing pads, one for each hind paw, that facilitates this determination. The hind paw weight bearing differentials were expressed in grams and calculated as follows: (the average weight in grams placed on the control limb minus the average weight in grams placed on the contralateral test limb for each of the inducement or treatment animals) minus (the average weight in grams placed on the control limb minus the average weight in grams placed on the contralateral test limb for each of the control animals). All results were statistically analyzed by comparing the average results for an induction or treatment group with the average result for its control group at the same time point using analysis of covariance (“ANCOVA”) followed by the Hoehberg's procedure and those with statistical significance had p<0.05 unless otherwise noted.\nHuman recombinant IL-6 (100 ng per rat; R&D Systems, Minneapolis, Minn.) was incubated at room temperature with human recombinant IL-6 soluble receptor (300 ng per rat; R&D Systems, Minneapolis, Minn.) in phosphate buffered saline (“PBS”) for 15 minutes prior to injection. Rats were anesthetized with 5% volume/volume (“v/v”) isoflurane gas and maintained with 2% v/v isoflurane gas. The anesthetized rats were given a single intra-articular injection of IL-6/WL-6sR through the infrapatellar ligament of the right knee in a volume of 50 μL. The contralateral control knee was injected with 50 μL of PBS. Administration of isoflurane gas was discontinued, and the rats became fully conscious about 5 minutes later.\nShifts in hind paw weight distribution from the right (arthritic) to the left (contralateral control) paws were utilized as an index of joint pain and as a measure of compound efficacy. An incapacitance tester (Model 2KG, Linton Instrumentation, UK) was employed for determination of hind paw weight distribution. Each data point is the mean of three, 5-second readings.\nCI-1027 was dissolved in BPMC vehicle as described above. Baseline changes in hind paw weight distribution readings were determined one day prior to injection of IL-6/IL-6sR. On the day of the experiment (Day 0), a single dose of CI-1027 (10, 30 or 100 mg/kg) was given via oral gavage 3 hours prior to injection of IL-6/IL-6sR (n=10 rats per group). Changes in hind paw weight distribution were determined one, three, and six hours after injection of IL-6/IL-6sR.\nIn Table 4 below, data from the method of Biological Method 5 are expressed as a percent inhibition of a change in hind paw weight distribution ± the standard error of the mean. The percents inhibition were calculated as follows. Percent inhibition of a change in hind paw weight distribution [formula] wherein: ΔWC is the hind-paw weight differential between the healthy limb and the hrIL-6+ hrIL-6sR injected limb of the control animal group administered vehicle alone, as measured at time 1, 3, or 6 hours post injection; and\nΔWG is the hind-paw weight differential between the healthy limb and the hrIL-6+ hrIL-6sR injected limb of a treatment animal group as measured at time 1, 3, or 6 hours post injection."}, "[2]": {"tested_on": "monosodium iodoacetate (MIA)-induced osteoarthritis", "assay": "MIA rat model, chronic oral b.i.d. dosing: tibial plateau cartilage erosion analysis", "assay_type": "in vivo", "conditions": "for Decreased Erosion Size (statistically significant decrease in size of area of joint erosion) / SDCES (Significant Decrease In Cartilage Erosion Severity), Ridit analysis: 28 days; for SDCES (Significant Decrease In Cartilage Erosion Severity), Ridit analysis: calcium salt", "experimental": "In a particular experiment, monosodium iodoacetate (“MIA”) (1 mg/joint) was injected through the infrapatellar ligament of the right knee of anesthetized male, Wistar rats. The contralateral control knee was injected with 50 μL of physiologic saline. The change in hind paw weight distribution, as determined by use of an incapacitance tester, between the right (arthritic) and left (contralateral control) knees was utilized as an index of functional limitation in the arthritic knee. Limitations in joint function were determined on Days 7, 14, and 28 following induction of arthritis. Following sacrifice, erosion severity was determined on the tibial plateaus from the arthritic joint. Histological analysis was also conducted on these samples.\nThe ridit analysis was used to determine differences in overall erosion severity. This parameter takes into account both the erosion grade (0=no erosion, I=erosion extending into the superficial or middle layers, or II=deep layer erosion), and area (small, medium and large, quantified by dividing the area of the largest erosion in each score into thirds) simultaneously.\nAfter administering CI-1027 b.i.d. for 4 weeks, the rats were euthanized by CO2 administration. The soft tissue was removed from the right (arthritic) leg, the joint was disarticulated, and the meniscus was carefully removed to expose the surface of the tibial plateau. The tibia was removed and placed in physiologic saline until erosion analysis was performed. Tibial plateau erosions were analyzed the same day as the sacrifice as follows. Each plateau was dipped in India ink for approximately 30 seconds to help define the erosions, rinsed in saline, and blotted on a paper towel. A stereomicroscope equipped with a digital camera was used to photograph each plateau. The tibial plateaus were photographed and graded separately by two ordinary skilled persons using the following system:\nGrade I=erosion extending into the superficial or middle layers;\nGrade II=deep layer erosion; no cartilage, sub-chondral bone exposed.\nThe photographs were transferred to a computer for image analysis using a Zeiss KS 300 Image Analysis System to determine the total erosion area for each grade, expressed in square millimeters (“mm^2”). A RIDIT analysis (see above) was used to determine differences in overall erosion severity. This analysis takes into account both the erosion grade and area (small, medium and large, quantified by dividing the area of the largest erosion in each score into thirds) simultaneously."}, "[3]": {"conditions": "30 mg/kg PO BID, dose-response experiment"}}, "note": "“Also recorded” adds a separate entry of the source."}
{"smiles": "CC(C)(CCCCOCCCCC(C)(C)C(=O)[O-])C(=O)[O-].[Ca+2]", "note": "[CI-1027, 6-(5-carboxy-5-methyl-hexyloxy)-2,2-dimethyl-hexanoic acid, calcium salt]", "values": [{"measurement": "inhibition of change in hind paw weight distribution", "setting": "[1]; 10 mg/kg PO 3 hours before IL-6/IL-6sR injection, 1 hour post injection (FIG. 6)", "value": "53±9", "unit": "%"}, {"measurement": "inhibition of change in hind paw weight distribution", "setting": "[1]; 10 mg/kg PO 3 hours before injection, repeat experiment, blinded readings (FIG. 7)", "value": "63±6", "unit": "%"}, {"measurement": "inhibition of change in hind paw weight distribution", "setting": "[1]; 30 mg/kg PO 3 hours before IL-6/IL-6sR injection, 1 hour post injection (FIG. 6)", "value": "74±8", "unit": "%"}, {"measurement": "inhibition of change in hind paw weight distribution", "setting": "[1]; 30 mg/kg PO 3 hours before injection, repeat experiment, blinded readings (FIG. 7)", "value": "71±10", "unit": "%"}, {"measurement": "inhibition of change in hind paw weight distribution", "setting": "[1]; 100 mg/kg PO 3 hours before IL-6/IL-6sR injection, 1 hour post injection (FIG. 6)", "value": "57±15", "unit": "%"}, {"measurement": "change in hind paw weight distribution", "setting": "[1]; 10, 30, 100 mg/kg PO, 3 and 6 hours post injection (6 and 9 hours post administration)", "value": "No significant effect"}, {"measurement": "Inhibition of Pain (% versus control), IL-6", "setting": "[1]; single oral dose 30 mg/kg on Day 1, 4 hours post dose", "value": "71 ± 10", "unit": "%"}, {"measurement": "Decreased Erosion Size (statistically significant decrease in size of area of joint erosion)", "setting": "[2]; 3 mg/kg PO BID", "value": "No"}, {"measurement": "SDCES (Significant Decrease In Cartilage Erosion Severity), Ridit analysis", "setting": "[2]; 3 mg/kg PO BID", "value": "statistically significant inhibitory effect; also recorded: Yes^f"}, {"measurement": "Decreased Erosion Size (statistically significant decrease in size of area of joint erosion)", "setting": "[2]; 10 mg/kg PO BID", "value": "Yes^c"}, {"measurement": "SDCES (Significant Decrease In Cartilage Erosion Severity), Ridit analysis", "setting": "[2]; 10 mg/kg PO BID", "value": "significantly decrease cartilage erosion severity; also recorded: statistically significant inhibitory effect; also recorded: Yes^e"}, {"measurement": "decrease in total erosion area (regardless of grade)", "setting": "[2]; 10 mg/kg PO b.i.d. 28 days, dose-response experiment (FIG. 5), statistically significant", "value": 62.4, "unit": "%"}, {"measurement": "Decreased Erosion Size (statistically significant decrease in size of area of joint erosion)", "setting": "[2]; [3]", "value": "No"}, {"measurement": "SDCES (Significant Decrease In Cartilage Erosion Severity), Ridit analysis", "setting": "[2]; [3]", "value": "significantly decrease cartilage erosion severity; also recorded: significantly decreased the degree of structural damage to the cartilage; also recorded: statistically significant inhibitory effect; also recorded: Yes^d"}, {"measurement": "Decreased Erosion Size (statistically significant decrease in size of area of joint erosion)", "setting": "[2]; 30 mg/kg PO BID, single-dose-level experiment", "value": "No"}, {"measurement": "SDCES (Significant Decrease In Cartilage Erosion Severity), Ridit analysis", "setting": "[2]; 30 mg/kg PO BID, single-dose-level experiment (p = 0.100)", "value": "no statistically significant effect and No^g"}, {"measurement": "treated rats with no erosions", "setting": "[2]; 30 mg/kg PO b.i.d. 28 days, first experiment, N=12", "value": "5 of the 12"}, {"measurement": "decrease in total erosion area (regardless of grade)", "setting": "[2]; 30 mg/kg PO b.i.d. 28 days, first experiment, not statistically significant (p=0.179)", "value": 43, "unit": "%"}]}
